From EP0754193B1, “HEPATITIS C VIRUS CORE PEPTIDE FOR STIMULATION OF CYTOTOXIC T LYMPHOCYTES AND DIAGNOSIS OF HCV EXPOSURE” (priority 1994, dated 1995)
Where no end group is shown, it is not given here.

System: 18Neo (H-2^d; class I MHC^+, class II MHC^- neomycin-resistance gene-transfected 3T3 fibroblast)
Settings: in the absence of CTL

## GFADLMGYIPLVGAPL [Peptide C7]
  direct toxicity to the cells: not directly toxic
